# PubChem BioAssay (NCI)
#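 Briefly, cells in 96-well plates were exposed to five compound concentrations for 48 h, and endpoints were estimated by linear interpolation. At the GI50, growth is halved. TGI denotes the concentration required for complete inhibition of growth.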
# Columns and labels:
# Test in all cases: NCI-60 cell line screen, 48 h
# [1] = system: HCT-15 colon
# [2] = system: TK-10 renal
# [3] = system: EKVX NSCLC
# [4] = system: OVCAR-8 ovarian
# [5] = system: A549 NSCLC
# [6] = system: A498 renal
# [7] = system: COLO 205 colon
# [8] = system: PC-3 prostate
# [9] = system: LOX IMVI melanoma
# [10] = system: SK-MEL-5 melanoma
# [11] = system: IGROV1 ovarian
# [12] = system: NCI/ADR-RES ovarian
# [13] = system: OVCAR-4 ovarian
# [14] = system: KM12 colon
# [15] = system: 786-0 renal
# [16] = system: RXF 393 renal
# [17] = system: SF-295 CNS
# [18] = system: SNB-75 CNS
# [19] = system: NCI-H226 lung
# [20] = system: CAKI-1 renal
# [21] = system: MDA-MB-231 breast
# [22] = system: NCI-H460 lung
# [23] = system: DU-145 prostate
# [24] = system: MDA-MB-435
# [25] = system: RPMI-8226 leukemia
# [26] = system: SF-539 CNS
# [27] = system: UACC-257 melanoma
# [28] = system: HS 578T breast
# [29] = system: HCT-116 colon
# [30] = system: OVCAR-3 ovarian
# [31] = system: U251 CNS
# [32] = system: BT-549 breast
# [33] = system: NCI-H23 lung
# [34] = system: UO-31 renal
# [35] = system: K-562 leukemia
# [36] = system: HT29 colon
# [37] = system: HL-60(TB) leukemia
# [38] = system: OVCAR-5 ovarian
# [39] = system: SK-OV-3 ovarian
# [40] = system: SN12C renal
# [41] = system: SR leukemia
# [42] = system: MOLT-4 leukemia
# [43] = system: HCC-2998 colon
# [44] = system: HOP-92 NSCLC
# [45] = system: MALME-3M melanoma
# [46] = system: MCF7 breast
# [47] = system: UACC-62 melanoma
# [48] = system: SF-268 CNS
# [49] = system: HOP-62 NSCLC
# [50] = system: ACHN renal
# [51] = system: T-47D breast
# [52] = system: SW-620 colon
# [53] = system: NCI-H522 lung
# [54] = system: SNB-19 CNS
# [55] = system: CCRF-CEM leukemia
# [56] = system: SK-MEL-2 melanoma
# [57] = system: SK-MEL-28 melanoma
# [58] = system: M14 melanoma
# [59] = system: MDA-N
smiles,measurement,setting,value
CCCN1CCC(Oc2cc(Nc3nc(Nc4cccc(F)c4C(N)=O)c4cc[nH]c4n3)c(OC)cc2Cl)CC1,GI50,[1],1.44 µM
same,TGI,[1],6.84 µM
same,GI50,[2],3.14 µM
same,TGI,[2],7.01 µM
same,GI50,[3],3.1 µM
same,TGI,[3],7.41 µM
same,GI50,[4],4.11 µM
same,TGI,[4],9.52 µM
same,GI50,[5],2.64 µM
same,TGI,[5],5.95 µM
same,GI50,[6],2.95 µM
same,TGI,[6],6.47 µM
same,GI50,[7],0.417 µM
same,TGI,[7],0.806 µM
same,GI50,[8],2.55 µM
same,TGI,[8],6.73 µM
same,GI50,[9],1.57 µM
same,TGI,[9],5.31 µM
same,GI50,[10],1.23 µM
same,TGI,[10],2.67 µM
same,GI50,[11],3.86 µM
same,TGI,[11],9.22 µM
same,GI50,[12],3.73 µM
same,TGI,[12],8.57 µM
same,GI50,[13],3.67 µM
same,TGI,[13],8.05 µM
same,GI50,[14],2.72 µM
same,TGI,[14],6.11 µM
same,GI50,[15],3.65 µM
same,TGI,[15],7.52 µM
same,GI50,[16],2.28 µM
same,TGI,[16],6.03 µM
same,GI50,[17],3.81 µM
same,TGI,[17],8.53 µM
same,GI50,[18],3.22 µM
same,TGI,[18],7.79 µM
same,GI50,[19],3.64 µM
same,TGI,[19],10.7 µM
same,GI50,[20],3.58 µM
same,TGI,[20],7.64 µM
same,GI50,[21],2.16 µM
same,TGI,[21],5.52 µM
same,GI50,[22],1.45 µM
same,TGI,[22],4.79 µM
same,GI50,[23],3.68 µM
same,TGI,[23],7.76 µM
same,GI50,[24],1.35 µM
same,TGI,[24],5.32 µM
same,GI50,[25],2.11 µM
same,TGI,[25],6.35 µM
same,GI50,[26],4.13 µM
same,TGI,[26],8.24 µM
same,GI50,[27],3.28 µM
same,TGI,[27],6.75 µM
same,GI50,[28],3.73 µM
same,TGI,[28],10.6 µM
same,GI50,[29],2.16 µM
same,TGI,[29],5.5 µM
same,GI50,[30],4.18 µM
same,TGI,[30],7.99 µM
same,GI50,[31],1.68 µM
same,TGI,[31],5.21 µM
same,GI50,[32],3.75 µM
same,TGI,[32],7.36 µM
same,GI50,[33],3.49 µM
same,TGI,[33],8.26 µM
same,GI50,[34],2.94 µM
same,TGI,[34],8.93 µM
same,GI50,[35],0.62 µM
same,TGI,[35],1.73 µM
same,GI50,[36],0.565 µM
same,TGI,[36],1.6 µM
same,GI50,[37],2.54 µM
same,TGI,[37],8.31 µM
same,GI50,[38],3.44 µM
same,TGI,[38],7.27 µM
same,GI50,[39],4.87 µM
same,TGI,[39],14 µM
same,GI50,[40],3.97 µM
same,TGI,[40],7.99 µM
same,GI50,[41],1.02 µM
same,TGI,[41],6.52 µM
same,GI50,[42],3.48 µM
same,TGI,[42],7.97 µM
same,GI50,[43],0.994 µM
same,TGI,[43],3.84 µM
same,GI50,[44],0.309 µM
same,TGI,[44],3.42 µM
same,GI50,[45],3.81 µM
same,TGI,[45],8.4 µM
same,GI50,[46],0.907 µM
same,TGI,[46],3.97 µM
same,GI50,[47],3.61 µM
same,TGI,[47],7.09 µM
same,GI50,[48],3.79 µM
same,TGI,[48],8.32 µM
same,GI50,[49],1.31 µM
same,TGI,[49],4.36 µM
same,GI50,[50],4.01 µM
same,TGI,[50],7.99 µM
same,GI50,[51],1.32 µM
same,TGI,[51],3.12 µM
same,GI50,[52],0.785 µM
same,TGI,[52],3.57 µM
same,GI50,[53],3.98 µM
same,TGI,[53],7.9 µM
same,GI50,[54],4.18 µM
same,TGI,[54],8.33 µM
same,GI50,[55],3.45 µM
same,TGI,[55],10.1 µM
same,GI50,[56],4.5 µM
same,TGI,[56],8.32 µM
same,GI50,[57],2.82 µM
same,TGI,[57],6.09 µM
same,GI50,[58],0.859 µM
same,TGI,[58],2.88 µM
C/C(=C\CCC1=CC(=O)OC1)CCC1C2C(=O)CC(C)[C@@]3(C)CC[C@]1(C)[C@@]23C (stereo partly specified),TGI,[1],> 10 µM
same,TGI,[2],> 10 µM
same,TGI,[3],> 10 µM
same,TGI,[4],> 10 µM
same,TGI,[5],> 10 µM
same,TGI,[7],> 10 µM
same,TGI,[8],> 10 µM
same,TGI,[9],> 10 µM
same,TGI,[10],> 10 µM
same,TGI,[59],> 10 µM
same,TGI,[11],> 10 µM
same,TGI,[14],> 10 µM
same,TGI,[15],> 10 µM
same,TGI,[16],> 10 µM
same,TGI,[17],> 10 µM
same,TGI,[18],> 10 µM
same,TGI,[20],> 10 µM
same,TGI,[21],> 10 µM
same,TGI,[23],> 10 µM
same,TGI,[25],> 10 µM
same,TGI,[27],> 10 µM
same,TGI,[33],> 10 µM
same,TGI,[35],> 10 µM
same,TGI,[36],> 10 µM
same,TGI,[37],> 10 µM
same,TGI,[39],> 10 µM
same,TGI,[40],> 10 µM
same,TGI,[41],> 10 µM
same,TGI,[42],> 10 µM
same,TGI,[43],> 10 µM
same,TGI,[45],> 10 µM
same,TGI,[46],> 10 µM
same,TGI,[47],> 10 µM
same,TGI,[48],> 10 µM
same,TGI,[49],> 10 µM
same,TGI,[51],> 10 µM
same,TGI,[52],> 10 µM
same,TGI,[55],> 10 µM
same,TGI,[57],> 10 µM
same,TGI,[58],> 10 µM
